Measurements as given in PubChem BioAssay AID1918932 (Molecular Pharmacology Branch, DTP, NCI, 2023).

Test system: 171881-019-R-J1-PDC complex spheroid viability
Experiment: Anticancer human tumor 171881-019-R-J1-PDC patient-derived invasive breast carcinoma cell line growth inhibition
Details: for IC50: curve of first compound; for viability, T/C: stronger effect = lower value
Outline: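 Complex spheroids of tumor cells with HUVEC and human MSCs, exposed to iadademstat combined with other agents. Each agent tested in half-log steps from near clinical Cmax (else 10 microM top), DMSO ≤0.25%.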

[1] = second compound 0.1 µM, first compound 0.000316 µM
[2] = second compound 0.1 µM, first compound 0.001 µM
[3] = second compound 0.1 µM, first compound 0.00316 µM
[4] = second compound 0.1 µM, first compound 0.01 µM
[5] = second compound 0.1 µM, first compound 0.0316 µM
[6] = second compound 0.1 µM, first compound 0.1 µM
[7] = second compound 0.316 µM, first compound 0.000316 µM
[8] = second compound 0.316 µM, first compound 0.001 µM
[9] = second compound 0.316 µM, first compound 0.00316 µM
[10] = second compound 0.316 µM, first compound 0.01 µM
[11] = second compound 0.316 µM, first compound 0.0316 µM
[12] = second compound 0.316 µM, first compound 0.1 µM
[13] = second compound 1 µM, first compound 0.000316 µM
[14] = second compound 1 µM, first compound 0.001 µM
[15] = second compound 1 µM, first compound 0.00316 µM
[16] = second compound 1 µM, first compound 0.01 µM
[17] = second compound 1 µM, first compound 0.0316 µM
[18] = second compound 1 µM, first compound 0.1 µM
[19] = second compound 3.16 µM, first compound 0.000316 µM
[20] = second compound 3.16 µM, first compound 0.001 µM
[21] = second compound 3.16 µM, first compound 0.00316 µM
[22] = second compound 3.16 µM, first compound 0.01 µM
[23] = second compound 3.16 µM, first compound 0.0316 µM
[24] = second compound 3.16 µM, first compound 0.1 µM
[25] = second compound 10 µM, first compound 0.000316 µM
[26] = second compound 10 µM, first compound 0.001 µM
[27] = second compound 10 µM, first compound 0.00316 µM
[28] = second compound 10 µM, first compound 0.01 µM
[29] = second compound 10 µM, first compound 0.0316 µM
[30] = second compound 10 µM, first compound 0.1 µM
[31] = second compound 0.1 µM, first compound 0.00949 µM
[32] = second compound 0.1 µM, first compound 0.03 µM
[33] = second compound 0.1 µM, first compound 0.0949 µM
[34] = second compound 0.1 µM, first compound 0.3 µM
[35] = second compound 0.1 µM, first compound 0.949 µM
[36] = second compound 0.1 µM, first compound 3 µM
[37] = second compound 0.316 µM, first compound 0.00949 µM
[38] = second compound 0.316 µM, first compound 0.03 µM
[39] = second compound 0.316 µM, first compound 0.0949 µM
[40] = second compound 0.316 µM, first compound 0.3 µM
[41] = second compound 0.316 µM, first compound 0.949 µM
[42] = second compound 0.316 µM, first compound 3 µM
[43] = second compound 1 µM, first compound 0.00949 µM
[44] = second compound 1 µM, first compound 0.03 µM
[45] = second compound 1 µM, first compound 0.0949 µM
[46] = second compound 1 µM, first compound 0.3 µM
[47] = second compound 1 µM, first compound 0.949 µM
[48] = second compound 1 µM, first compound 3 µM
[49] = second compound 3.16 µM, first compound 0.00949 µM
[50] = second compound 3.16 µM, first compound 0.03 µM
[51] = second compound 3.16 µM, first compound 0.0949 µM
[52] = second compound 3.16 µM, first compound 0.3 µM
[53] = second compound 3.16 µM, first compound 0.949 µM
[54] = second compound 3.16 µM, first compound 3 µM
[55] = second compound 10 µM, first compound 0.00949 µM
[56] = second compound 10 µM, first compound 0.03 µM
[57] = second compound 10 µM, first compound 0.0949 µM
[58] = second compound 10 µM, first compound 0.3 µM
[59] = second compound 10 µM, first compound 0.949 µM
[60] = second compound 10 µM, first compound 3 µM

## CC(C)CC(NC(=O)C(Cc1ccccc1)NC(=O)c1cnccn1)B(O)O (stereo not given) + NC1CCC(NC2CC2c2ccccc2)CC1
Second compound 0.1 µM
  IC50: < 0.316 nM
Second compound 0.316 µM
  IC50: < 0.316 nM
Second compound 1 µM
  IC50: < 0.316 nM
Second compound 3.16 µM
  IC50: < 0.316 nM
Second compound 10 µM
  IC50: < 0.316 nM
[1]
  viability, T/C: 9.27%
[2]
  viability, T/C: 1.3%
[3]
  viability, T/C: 3.65%
[4]
  viability, T/C: 0.1%
[5]
  viability, T/C: 0.06%
[6]
  viability, T/C: 0.11%
[7]
  viability, T/C: 8.56%
[8]
  viability, T/C: 1.25%
[9]
  viability, T/C: 0.38%
[10]
  viability, T/C: 0.1%
[11]
  viability, T/C: 0.09%
[12]
  viability, T/C: 0.14%
[13]
  viability, T/C: 10.1%
[14]
  viability, T/C: 1.4%
[15]
  viability, T/C: 0.35%
[16]
  viability, T/C: 0.2%
[17]
  viability, T/C: 0.03%
[18]
  viability, T/C: 2.22%
[19]
  viability, T/C: 9.75%
[20]
  viability, T/C: 3.48%
[21]
  viability, T/C: 0.44%
[22]
  viability, T/C: 0.14%
[23]
  viability, T/C: 0.04%
[24]
  viability, T/C: 1.61%
[25]
  viability, T/C: 5.79%
[26]
  viability, T/C: 0.65%
[27]
  viability, T/C: 0.32%
[28]
  viability, T/C: 0.23%
[29]
  viability, T/C: 0.09%
[30]
  viability, T/C: 0.37%

## CC(C)CC(NC(=O)CNC(=O)c1cc(Cl)ccc1Cl)B1OC(=O)CC(CC(=O)O)(C(=O)O)O1 (stereo not given) + NC1CCC(NC2CC2c2ccccc2)CC1
Second compound 0.1 µM
  IC50: 3.66 nM
Second compound 0.316 µM
  IC50: 3.22 nM
Second compound 1 µM
  IC50: 3.66 nM
Second compound 3.16 µM
  IC50: 3.84 nM
Second compound 10 µM
  IC50: 3.71 nM
[1]
  viability, T/C: 87.4%
[2]
  viability, T/C: 86.8%
[3]
  viability, T/C: 54.9%
[4]
  viability, T/C: 13.2%
[5]
  viability, T/C: 3.51%
[6]
  viability, T/C: 4.11%
[7]
  viability, T/C: 84.8%
[8]
  viability, T/C: 83.8%
[9]
  viability, T/C: 49.8%
[10]
  viability, T/C: 11.8%
[11]
  viability, T/C: 3.3%
[12]
  viability, T/C: 1.04%
[13]
  viability, T/C: 79%
[14]
  viability, T/C: 82.2%
[15]
  viability, T/C: 54.5%
[16]
  viability, T/C: 13.6%
[17]
  viability, T/C: 3.7%
[18]
  viability, T/C: 1%
[19]
  viability, T/C: 91.7%
[20]
  viability, T/C: 90.8%
[21]
  viability, T/C: 57.1%
[22]
  viability, T/C: 12.4%
[23]
  viability, T/C: 3.26%
[24]
  viability, T/C: 0.97%
[25]
  viability, T/C: 86.1%
[26]
  viability, T/C: 94.2%
[27]
  viability, T/C: 56.2%
[28]
  viability, T/C: 8.46%
[29]
  viability, T/C: 1.96%
[30]
  viability, T/C: 0.65%

## Nc1ccccc1NC(=O)c1ccc(CNC(=O)OCc2cccnc2)cc1 + NC1CCC(NC2CC2c2ccccc2)CC1
Second compound 0.1 µM
  IC50: 263 nM
Second compound 0.316 µM
  IC50: 252 nM
Second compound 1 µM
  IC50: 277 nM
Second compound 3.16 µM
  IC50: 288 nM
Second compound 10 µM
  IC50: 325 nM
[31]
  viability, T/C: 86.6%
[32]
  viability, T/C: 85.5%
[33]
  viability, T/C: 117%
[34]
  viability, T/C: 43.9%
[35]
  viability, T/C: 2.1%
[36]
  viability, T/C: 0.32%
[37]
  viability, T/C: 89.2%
[38]
  viability, T/C: 98.6%
[39]
  viability, T/C: 119%
[40]
  viability, T/C: 40.8%
[41]
  viability, T/C: 2.42%
[42]
  viability, T/C: 0.34%
[43]
  viability, T/C: 91.3%
[44]
  viability, T/C: 104%
[45]
  viability, T/C: 116%
[46]
  viability, T/C: 46%
[47]
  viability, T/C: 1.97%
[48]
  viability, T/C: 0.29%
[49]
  viability, T/C: 87.8%
[50]
  viability, T/C: 96%
[51]
  viability, T/C: 115%
[52]
  viability, T/C: 48.1%
[53]
  viability, T/C: 2.3%
[54]
  viability, T/C: 0.22%
[55]
  viability, T/C: 92.5%
[56]
  viability, T/C: 109%
[57]
  viability, T/C: 126%
[58]
  viability, T/C: 53.6%
[59]
  viability, T/C: 2.32%
[60]
  viability, T/C: 0.27%

## O=C(C=Cc1cccc(S(=O)(=O)Nc2ccccc2)c1)NO + NC1CCC(NC2CC2c2ccccc2)CC1
Second compound 0.1 µM
  IC50: 441 nM
Second compound 0.316 µM
  IC50: 387 nM
Second compound 1 µM
  IC50: 371 nM
Second compound 3.16 µM
  IC50: 370 nM
Second compound 10 µM
  IC50: 363 nM
[31]
  viability, T/C: 81.7%
[32]
  viability, T/C: 86.9%
[33]
  viability, T/C: 112%
[34]
  viability, T/C: 69.3%
[35]
  viability, T/C: 10.8%
[36]
  viability, T/C: 0.16%
[37]
  viability, T/C: 92.8%
[38]
  viability, T/C: 104%
[39]
  viability, T/C: 112%
[40]
  viability, T/C: 63.5%
[41]
  viability, T/C: 5.13%
[42]
  viability, T/C: 0.17%
[43]
  viability, T/C: 101%
[44]
  viability, T/C: 108%
[45]
  viability, T/C: 100%
[46]
  viability, T/C: 59%
[47]
  viability, T/C: 10.2%
[48]
  viability, T/C: 5.62%
[49]
  viability, T/C: 93.4%
[50]
  viability, T/C: 105%
[51]
  viability, T/C: 97%
[52]
  viability, T/C: 58.9%
[53]
  viability, T/C: 9.02%
[54]
  viability, T/C: 0.15%
[55]
  viability, T/C: 84.1%
[56]
  viability, T/C: 93%
[57]
  viability, T/C: 111%
[58]
  viability, T/C: 59.1%
[59]
  viability, T/C: 7.76%
[60]
  viability, T/C: 0.33%

## O=C(c1cc(Cc2n[nH]c(=O)c3ccccc23)ccc1F)N1CCN(C(=O)C2CC2)CC1 + NC1CCC(NC2CC2c2ccccc2)CC1
Second compound 0.1 µM
  IC50: > 10000 nM
Second compound 0.316 µM
  IC50: > 10000 nM
Second compound 1 µM
  IC50: > 10000 nM
Second compound 3.16 µM
  IC50: > 10000 nM
Second compound 10 µM
  IC50: > 10000 nM
[5]
  viability, T/C: 85.3%
[6]
  viability, T/C: 86.6%
Second compound 0.1 µM, first compound 0.316 µM
  viability, T/C: 82.4%
Second compound 0.1 µM, first compound 1 µM
  viability, T/C: 86.6%
Second compound 0.1 µM, first compound 3.16 µM
  viability, T/C: 84.7%
Second compound 0.1 µM, first compound 10 µM
  viability, T/C: 85.1%
[11]
  viability, T/C: 91.7%
[12]
  viability, T/C: 82.7%
Second compound 0.316 µM, first compound 0.316 µM
  viability, T/C: 87.7%
Second compound 0.316 µM, first compound 1 µM
  viability, T/C: 79.6%
Second compound 0.316 µM, first compound 3.16 µM
  viability, T/C: 86.2%
Second compound 0.316 µM, first compound 10 µM
  viability, T/C: 82%
[17]
  viability, T/C: 90.6%
[18]
  viability, T/C: 95.9%
Second compound 1 µM, first compound 0.316 µM
  viability, T/C: 88.9%
Second compound 1 µM, first compound 1 µM
  viability, T/C: 79.9%
Second compound 1 µM, first compound 3.16 µM
  viability, T/C: 85.8%
Second compound 1 µM, first compound 10 µM
  viability, T/C: 80%
[23]
  viability, T/C: 99.8%
[24]
  viability, T/C: 87.8%
Second compound 3.16 µM, first compound 0.316 µM
  viability, T/C: 86.3%
Second compound 3.16 µM, first compound 1 µM
  viability, T/C: 79.3%
Second compound 3.16 µM, first compound 3.16 µM
  viability, T/C: 88.4%
Second compound 3.16 µM, first compound 10 µM
  viability, T/C: 80.9%
[29]
  viability, T/C: 83.8%
[30]
  viability, T/C: 82.9%
Second compound 10 µM, first compound 0.316 µM
  viability, T/C: 78.3%
Second compound 10 µM, first compound 1 µM
  viability, T/C: 74.2%
Second compound 10 µM, first compound 3.16 µM
  viability, T/C: 81.9%
Second compound 10 µM, first compound 10 µM
  viability, T/C: 80.5%
